We go through 4 molecules from ChEMBL document CHEMBL4138317, “Deciphering the Inhibition of the Neuronal Calcium Sensor 1 and the Guanine Exchange Factor Ric8a with a Small Phenothiazine Molecule for the Rational Generation of Therapeutic Synapse Function Regulators” (J Med Chem, 2018).

Activity calls are given as the source filed them. No cut-off for these calls is given here.

The term inhibition denotes the change of the read-out against control, counted positive when it falls.

For one test, the target named is T1, Frequenin-2 (Drosophila melanogaster, UniProt Q9VWX8).
T1 sequence (Q9VWX8 whole entry): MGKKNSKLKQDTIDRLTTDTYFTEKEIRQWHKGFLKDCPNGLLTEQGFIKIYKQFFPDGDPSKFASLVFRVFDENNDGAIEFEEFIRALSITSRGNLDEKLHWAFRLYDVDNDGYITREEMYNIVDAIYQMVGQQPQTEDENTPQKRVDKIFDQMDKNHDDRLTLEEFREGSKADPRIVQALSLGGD
The test is described as follows: Binding affinity to drosophila NCS1 expressed in Escherichia coli BL21 (DE3) by fluorescence emission assay. The conditions noted are these: read-out: Kd(app).

Test [1] deals with Neuronal calcium sensor 1/Synembryn-A (Homo sapiens) (UniProt P62166+Q9NPQ8). Kind of test: Inhibition of human NCS1 and V5-tagged Ric8a interaction expressed in HEK293 cells at 20 uM after 24 hrs by Western blot analysis relative to control. The class given is cell-based. Background: A western blot detects proteins with antibodies after separation by electrophoresis.
Chain of Neuronal calcium sensor 1/Synembryn-A (Homo sapiens) (P62166 whole entry, looked up): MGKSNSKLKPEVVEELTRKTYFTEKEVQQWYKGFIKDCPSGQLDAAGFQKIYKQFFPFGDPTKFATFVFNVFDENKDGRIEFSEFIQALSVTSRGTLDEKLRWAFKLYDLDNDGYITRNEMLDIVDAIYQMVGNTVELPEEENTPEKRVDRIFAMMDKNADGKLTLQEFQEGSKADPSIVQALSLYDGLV
Chain of Neuronal calcium sensor 1/Synembryn-A (Homo sapiens) (Q9NPQ8 whole entry, looked up): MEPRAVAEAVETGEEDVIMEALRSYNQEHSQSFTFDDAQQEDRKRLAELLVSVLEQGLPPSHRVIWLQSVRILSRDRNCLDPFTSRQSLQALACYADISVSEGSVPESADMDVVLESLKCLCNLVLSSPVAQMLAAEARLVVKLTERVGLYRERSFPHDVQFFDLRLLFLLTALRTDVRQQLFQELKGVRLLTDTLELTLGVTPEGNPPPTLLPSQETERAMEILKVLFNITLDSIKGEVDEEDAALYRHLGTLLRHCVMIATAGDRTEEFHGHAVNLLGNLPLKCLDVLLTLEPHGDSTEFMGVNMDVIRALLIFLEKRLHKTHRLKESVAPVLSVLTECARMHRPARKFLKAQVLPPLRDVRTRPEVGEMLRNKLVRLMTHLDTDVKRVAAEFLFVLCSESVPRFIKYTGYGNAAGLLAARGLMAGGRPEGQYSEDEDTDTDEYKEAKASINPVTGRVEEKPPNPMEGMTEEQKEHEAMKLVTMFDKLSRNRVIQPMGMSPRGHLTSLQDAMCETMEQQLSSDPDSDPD
Test [2] deals with Neuronal calcium sensor 1 (Homo sapiens, UniProt P62166). The test is described as follows: Binding affinity to human NCS1 expressed in Escherichia coli BL21 Star (DE3) by fluorescence emission assay. The conditions noted are these: read-out: Kd(app).
Chain of Neuronal calcium sensor 1 (P62166 2-190 limits assumed): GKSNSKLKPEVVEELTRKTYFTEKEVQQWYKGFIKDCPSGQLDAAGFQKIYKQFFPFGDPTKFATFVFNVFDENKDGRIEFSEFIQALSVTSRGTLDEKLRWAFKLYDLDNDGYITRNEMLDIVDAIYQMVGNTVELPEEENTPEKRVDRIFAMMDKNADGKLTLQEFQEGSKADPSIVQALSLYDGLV
Test [3] deals with T2, Frequenin-2 (Drosophila melanogaster) (UniProt Q9VWX8).
T2 sequence (whole entry): T1 sequence (Q9VWX8 whole entry)
Kind of test: Binding affinity to drosophila NCS1 expressed in Escherichia coli BL21 (DE3) by STD-NMR method.

Consider `O=C(CC(c1ccccc1)c1ccccc1)Nc1nc2ccccc2s1`, for which the Kd on Frequenin-2 was 1.13 µM; in test [2], 1.25 µM. In test [1], the inhibition was determined as 50%.
In the case of `O=C(CN1CCCCC1)NN1c2ccccc2Sc2ccccc21`, the outcome in test [3] was Active. In addition, the Kd on Frequenin-2 worked out at 71 µM.
For the molecule `COc1ccccc1C(=O)Nc1nc2cc(C(F)(F)F)ccc2s1`, the inhibition in test [1] came to 50%. For the same molecule, the Kd in test [2] was 11.5 µM.
Take `Cc1sc(NC(=O)CNC(=O)c2ccc(F)cc2)nc1-c1ccccc1`: the inhibition in test [1] was 50%.
